ChEMBL document CHEMBL1142732, “In-depth study of tripeptide-based alpha-ketoheterocycles as inhibitors of thrombin. Effective utilization of the S1' subsite and its implications to structure-based drug design” (J Med Chem, 2005)

What follows are molecules tested against T1, Serine protease 1 (Bos taurus, UniProt P00760) (assay: Binding affinity against bovine trypsin).
T1 sequence (P00760 whole entry): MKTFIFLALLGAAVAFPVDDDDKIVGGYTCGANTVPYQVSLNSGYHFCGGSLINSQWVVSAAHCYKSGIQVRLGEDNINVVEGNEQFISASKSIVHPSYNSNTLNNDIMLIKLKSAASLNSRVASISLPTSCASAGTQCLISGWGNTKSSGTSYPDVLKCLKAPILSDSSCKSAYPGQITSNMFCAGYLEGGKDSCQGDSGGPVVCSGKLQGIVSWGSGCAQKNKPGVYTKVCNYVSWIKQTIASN

Ki [nM] | Compound
210 | CN[C@H](Cc1ccccc1)C(=O)N1CCC[C@H]1C(=O)N[C@@H](C[C@H]1CCCN(C(=N)N)C1)C(=O)c1nc2ccccc2s1
8 | CN[C@H](Cc1ccccc1)C(=O)N1CCC[C@H]1C(=O)N[C@@H](C[C@@H]1CCCN(C(=N)N)C1)C(=O)c1nc2ccccc2s1
1.8 | CN[C@H](Cc1ccccc1)C(=O)N1CCC[C@H]1C(=O)N[C@@H](Cc1cccc(C(=N)N)c1)C(=O)c1nc2ccccc2s1
540 | CN[C@H](Cc1ccccc1)C(=O)N1CCC[C@H]1C(=O)N[C@H](C[C@H]1CCCN(C(=N)N)C1)C(=O)c1nc2ccccc2s1
12 | CN[C@H](Cc1ccccc1)C(=O)N1CCC[C@H]1C(=O)NC(CCCN=C(N)N)C(=O)c1nc2ccccc2[nH]1 (some centres not stated)
6 | CN[C@H](Cc1ccccc1)C(=O)N1CCC[C@H]1C(=O)NC(CCCN=C(N)N)C(=O)c1nc(C(=O)O)cs1 (some centres not stated)
1300 | CN[C@H](Cc1ccccc1)C(=O)N1CCC[C@H]1C(=O)NC(CCCN=C(N)N)C(=O)c1cc2ccccc2s1 (some centres not stated)
5 | CN[C@H](Cc1ccccc1)C(=O)N1CCC[C@H]1C(=O)NC(CCCN=C(N)N)C(=O)c1nc(C(=O)NCCc2ccccc2)cs1 (some centres not stated)
8.3 | CN[C@H](Cc1ccccc1)C(=O)N1CCC[C@H]1C(=O)NC(CCCN=C(N)N)C(=O)c1nc2ccccc2c(=O)[nH]1 (some centres not stated)
1300 | NC(N)=NCCCC(NC=O)C(=O)c1nc2ccccc2s1 (configuration not stated)
180000 | CN[C@H](Cc1ccccc1)C(=O)N1CCC[C@H]1C(=O)N[C@@H](CCCN=C(N)N)C(O)c1nc2ccccc2s1 (stereo in doubt; form 1)
250000 | CN[C@H](Cc1ccccc1)C(=O)N1CCC[C@H]1C(=O)N[C@@H](CCCN=C(N)N)C(O)c1nc2ccccc2s1 (stereo in doubt; form 2)
1.2 | CN[C@H](Cc1ccccc1)C(=O)N1CCC[C@H]1C(=O)N[C@@H](CCCNC(=N)N)C(=O)c1nccs1
12000 | CN[C@H](Cc1ccccc1)C(=O)N1CCC[C@H]1C(=O)N[C@@H](CCCOC)C(=O)c1nc2ccccc2s1
5.4 | CCOC(=O)c1csc(C(=O)C(CCCN=C(N)N)NC(=O)[C@@H]2CCCN2C(=O)[C@@H](Cc2ccccc2)NC)n1 (some centres not stated)
5.3 | CN[C@H](Cc1ccccc1)C(=O)N1CCC[C@H]1C(=O)NC(CCCN=C(N)N)C(=O)c1nc2ccc(CO)cc2s1 (some centres not stated)
30 | N=C(N)NCCCC(NC(=O)C1CCCC1)C(=O)c1nc2ccccc2s1 (configuration not stated)

Compound | Ki [nM]
CN[C@@H](C(=O)N1CCC[C@H]1C(=O)NC(CCCN=C(N)N)C(=O)c1nc2ccccc2s1)C1CCCCC1 (some centres not stated) | 1.2
CN[C@H](Cc1ccccc1)C(=O)N1CCC[C@H]1C(=O)N[C@H](CCCCN)C(=O)c1nc2ccccc2s1 | 20
CN[C@H](CC1CCCCC1)C(=O)N1CCC[C@H]1C(=O)NC(CCCN=C(N)N)C(=O)c1nc2ccccc2s1 (some centres not stated) | 3.9
CCS(=O)(=O)N[C@H](Cc1ccccc1)C(=O)N1CCC[C@H]1C(=O)NC(C(=O)c1nc2ccccc2s1)C1CCC(N)CC1 (some centres not stated) | 87

What follows are molecules tested against T2, Prothrombin (Homo sapiens, UniProt P00734) (assay: Inhibitory concentration against human alpha thrombin).

IC50 [nM] | Compound
1000 | CN[C@H](Cc1ccccc1)C(=O)N1CCC[C@H]1C(=O)N[C@@H](C[C@H]1CCCN(C(=N)N)C1)C(=O)c1nc2ccccc2s1
51 | CN[C@H](Cc1ccccc1)C(=O)N1CCC[C@H]1C(=O)N[C@@H](C[C@@H]1CCCN(C(=N)N)C1)C(=O)c1nc2ccccc2s1
360 | CN[C@H](Cc1ccccc1)C(=O)N1CCC[C@H]1C(=O)NC(CCCN=C(N)N)C(=O)c1nc2ccccc2[nH]1 (some centres not stated)
112 | CN[C@H](Cc1ccccc1)C(=O)N1CCC[C@H]1C(=O)NC(CCCN=C(N)N)C(=O)c1nc(C(=O)O)cs1 (some centres not stated)
13000 | CN[C@H](Cc1ccccc1)C(=O)N1CCC[C@H]1C(=O)NC(CCCN=C(N)N)C(=O)c1cc2ccccc2s1 (some centres not stated)
830 | CN[C@H](Cc1ccccc1)C(=O)N1CCC[C@H]1C(=O)NC(CCCN=C(N)N)C(=O)c1nc(C(=O)NCCc2ccccc2)cs1 (some centres not stated)
106 | CN[C@H](Cc1ccccc1)C(=O)N1CCC[C@H]1C(=O)NC(CCCN=C(N)N)C(=O)c1nc2ccccc2c(=O)[nH]1 (some centres not stated)
> 50000 | NC(N)=NCCCC(NC=O)C(=O)c1nc2ccccc2s1 (configuration not stated)
48000 | CN[C@H](Cc1ccccc1)C(=O)N1CCC[C@H]1C(=O)N[C@@H](CCCN=C(N)N)C(O)c1nc2ccccc2s1 (stereo in doubt; form 1)
17000 | CN[C@H](Cc1ccccc1)C(=O)N1CCC[C@H]1C(=O)N[C@@H](CCCN=C(N)N)C(O)c1nc2ccccc2s1 (stereo in doubt; form 2)
19 | CN[C@H](Cc1ccccc1)C(=O)N1CCC[C@H]1C(=O)N[C@@H](CCCNC(=N)N)C(=O)c1nccs1
46000 | CN[C@H](Cc1ccccc1)C(=O)N1CCC[C@H]1C(=O)N[C@@H](CCCOC)C(=O)c1nc2ccccc2s1
120 | CCOC(=O)c1csc(C(=O)C(CCCN=C(N)N)NC(=O)[C@@H]2CCCN2C(=O)[C@@H](Cc2ccccc2)NC)n1 (some centres not stated)

Compound | IC50 [nM]
CN[C@@H](C(=O)N1CCC[C@H]1C(=O)NC(CCCN=C(N)N)C(=O)c1nc2ccccc2s1)C1CCCCC1 (some centres not stated) | 5.3
CCS(=O)(=O)N[C@H](Cc1ccccc1)C(=O)N1CCC[C@H]1C(=O)NC(C(=O)c1nc2ccccc2s1)C1CCC(N)CC1 (some centres not stated) | 460

Organism: Homo sapiens
Test: Inhibitory concentration against gel filtered platelet aggregation induced by alpha thrombin
Assay type: functional

Compound | IC50 [nM]
CN[C@@H](C(=O)N1CCC[C@H]1C(=O)NC(CCCN=C(N)N)C(=O)c1nc2ccccc2s1)C1CCCCC1 (some centres not stated) | 17
CN[C@H](CC1CCCCC1)C(=O)N1CCC[C@H]1C(=O)NC(CCCN=C(N)N)C(=O)c1nc2ccccc2s1 (some centres not stated) | 28
CCS(=O)(=O)N[C@H](Cc1ccccc1)C(=O)N1CCC[C@H]1C(=O)NC(C(=O)c1nc2ccccc2s1)C1CCC(N)CC1 (some centres not stated) | 120

These molecules were tested against T2, Prothrombin (assay: Binding affinity determined against human alpha thrombin).

Ki [nM] | Compound
99 | CN[C@H](Cc1ccccc1)C(=O)N1CCC[C@H]1C(=O)N[C@@H](C[C@H]1CCCN(C(=N)N)C1)C(=O)c1nc2ccccc2s1
1.6 | CN[C@H](Cc1ccccc1)C(=O)N1CCC[C@H]1C(=O)N[C@@H](C[C@@H]1CCCN(C(=N)N)C1)C(=O)c1nc2ccccc2s1
0.99 | CN[C@H](Cc1ccccc1)C(=O)N1CCC[C@H]1C(=O)N[C@@H](Cc1cccc(C(=N)N)c1)C(=O)c1nc2ccccc2s1
380 | CN[C@H](Cc1ccccc1)C(=O)N1CCC[C@H]1C(=O)N[C@H](C[C@H]1CCCN(C(=N)N)C1)C(=O)c1nc2ccccc2s1
9.6 | CN[C@H](Cc1ccccc1)C(=O)N1CCC[C@H]1C(=O)NC(CCCN=C(N)N)C(=O)c1nc2ccccc2[nH]1 (some centres not stated)
9.1 | CN[C@H](Cc1ccccc1)C(=O)N1CCC[C@H]1C(=O)NC(CCCN=C(N)N)C(=O)c1nc(C(=O)O)cs1 (some centres not stated)
2400 | CN[C@H](Cc1ccccc1)C(=O)N1CCC[C@H]1C(=O)NC(CCCN=C(N)N)C(=O)c1cc2ccccc2s1 (some centres not stated)
120 | CN[C@H](Cc1ccccc1)C(=O)N1CCC[C@H]1C(=O)NC(CCCN=C(N)N)C(=O)c1nc(C(=O)NCCc2ccccc2)cs1 (some centres not stated)
15 | CN[C@H](Cc1ccccc1)C(=O)N1CCC[C@H]1C(=O)NC(CCCN=C(N)N)C(=O)c1nc2ccccc2c(=O)[nH]1 (some centres not stated)
5300 | CN[C@H](Cc1ccccc1)C(=O)N1CCC[C@H]1C(=O)N[C@@H](CCCN=C(N)N)C(O)c1nc2ccccc2s1 (stereo in doubt; form 1)
1600 | CN[C@H](Cc1ccccc1)C(=O)N1CCC[C@H]1C(=O)N[C@@H](CCCN=C(N)N)C(O)c1nc2ccccc2s1 (stereo in doubt; form 2)
3900 | CN[C@H](Cc1ccccc1)C(=O)N1CCC[C@H]1C(=O)N[C@@H](CCCOC)C(=O)c1nc2ccccc2s1
4.5 | CCOC(=O)c1csc(C(=O)C(CCCN=C(N)N)NC(=O)[C@@H]2CCCN2C(=O)[C@@H](Cc2ccccc2)NC)n1 (some centres not stated)

Compound | Ki [nM]
CN[C@H](Cc1ccccc1)C(=O)N1CCC[C@H]1C(=O)N[C@H](CCCCN)C(=O)c1nc2ccccc2s1 | 210
CCS(=O)(=O)N[C@H](Cc1ccccc1)C(=O)N1CCC[C@H]1C(=O)NC(C(=O)c1nc2ccccc2s1)C1CCC(N)CC1 (some centres not stated) | 53

What follows are molecules tested on Cavia porcellus (assay: Percent change in blood pressure in guinea pig at 3 mg/kg dose).

Compound | Delta BP [%]
CN[C@@H](C(=O)N1CCC[C@H]1C(=O)NC(CCCN=C(N)N)C(=O)c1nc2ccccc2s1)C1CCCCC1 (some centres not stated) | -21
CN[C@H](Cc1ccccc1)C(=O)N1CCC[C@H]1C(=O)N[C@H](CCCCN)C(=O)c1nc2ccccc2s1 | -41
CN[C@H](CC1CCCCC1)C(=O)N1CCC[C@H]1C(=O)NC(CCCN=C(N)N)C(=O)c1nc2ccccc2s1 (some centres not stated) | -49
